In brackets after ≈: the same amount, converted by molar mass. Like-named read-outs stand apart in the source and are kept apart here.
Assays:
[1] = system: 1A9 (human ovarian carcinoma); experiment: in vitro cytotoxicity against human tumor cell replication, 1A9; type: cell-based; conditions: for EC50: read-out: ED50 (the source's name)
Source text: (§1) Cancer cell used in cytotoxicity evaluation in vitro were all from human, including lung cancer cell line (A549), breast cancer cell line (MCF-7), ovarian cancer cell line (1A9), epidermoid nasopharyngeal carcinoma cell line (KB), vincristine-resistant cells (KB-VIN), melanoma cancer cell line (SK-MEL-2), ileocecal cancer cell line (HCT-8), renal carcinoma cell line (CAKI), bone cancer cell line (HOS), et al. the anti-cancer ability of the compound represented by half-effective amount (ED50). Control drug was V16 (Etoposide).

[2] = system: A549 (human lung carcinoma); experiment: in vitro cytotoxicity against human tumor cell replication, A549; type: cell-based; conditions: for EC50: read-out: ED50 (the source's name)
Source text: as §1

[3] = system: KB (human epidermoid carcinoma of the nasopharynx); experiment: in vitro cytotoxicity against human tumor cell replication, KB; type: cell-based; conditions: for EC50: read-out: ED50 (the source's name)
Source text: as §1

[4] = system: KB-VIN (vincristine-resistant KB cells, multi-drug resistant expressing P-glycoprotein); experiment: in vitro cytotoxicity against human tumor cell replication, KB-VIN; type: cell-based; conditions: for EC50: read-out: ED50 (the source's name)
Source text: as §1

[5] = system: human tumor cell lines; experiment: in vitro evaluation against a panel of several cancer cell lines; type: cell-based
Source text: as §1

[6] = system: MCF-7 (breast cancer cell line); experiment: in vitro cytotoxicity against human tumor cell replication, MCF-7; type: cell-based
Source text: as §1

[7] = system: KB (human epidermoid carcinoma of the nasopharynx); conditions: parent KB cell line; background section; cited from earlier work
[8] = system: Kunming mice; experiment: in vivo; conditions: for Death Rate: Kunming, mouse, in vivo, iv, 14 days
Procedure: (§2) The tumor activity […] testing represented by acute toxicity test and tumor-inhibiting testing of mice S180, Method: LD50 of desmosdumotin C to Kunming mice by vein route was obtained by the general acute toxicity test method. Sarcoma S180 was hypodermic inoculated to mice, drug administrated, compared drug group with control group, inhibition rate was calculated, P value show the statistical difference. […].

[9] = in vivo; conditions: both sexes, Kunming, mouse, in vivo, Kunming mice, single vein injection, half male/half female
Procedure: as §2

[10] = system: Sarcoma S180; experiment: tumor-inhibiting test of mice S180; type: in vivo, Kunming mice; conditions: for Inhibition Rate: S180 tumor growth
Procedure: as §2

[11] = system: 1A9 (human ovarian carcinoma); conditions: IA9 ovarian cancer cell; background section; cited from earlier work
[12] = system: KB-VIN (vincristine-resistant KB cells, multi-drug resistant expressing P-glycoprotein); conditions: background section; cited from earlier work
[13] = system: MCF-7 (breast cancer cell line); conditions: background section; cited from earlier work

Structure (SMILES): COC1=C(C)C(=O)C(=C(O)C=Cc2ccc(Br)cc2)C(=O)C1(C)C [Compound 2, 2-[1′-Hydroxy-3-(4-bromophenyl)-allylidene]-5-methoxy-4,6,6-trimethylcyclohex-4-ene-1,3-dione]
- EC50 ([1]; Homo sapiens): 2.8 µM
- EC50 ([2]; Homo sapiens): 3.57 µM
- EC50 ([3]; Homo sapiens): 4.33 µM
- EC50 ([4]; Homo sapiens, KBVIN): 4.84 µM

Structure (SMILES): COC1=C(C)C(=O)C(=C(O)C=Cc2ccccc2OC)C(=O)C1(C)C [Compound 3, 2-[1′-Hydroxy-3-(2-methoxyphenyl)-allylidene]-5-methoxy-4,6,6-trimethylcyclohex-4-ene-1,3-dione]
- EC50 ([1]; Homo sapiens): 8.16 µM
- EC50 ([2]; Homo sapiens): 8.74 µM
- activity relative to desmosdumotin C ([5]; fold of desmosdumotin C): 4 times
- EC50 ([3]; Homo sapiens): 10.5 µM
- EC50 ([4]; Homo sapiens, KBVIN): 8.45 µM

Structure (SMILES): COC1=C(C)C(=O)C(=C(O)C=Cc2cccc(OC)c2)C(=O)C1(C)C [Compound 4, 2-[1′-Hydroxy-3-(3-methoxyphenyl)-allylidene]-5-methoxy-4,6,6-trimethyl-cyclohex-4-ene-1,3-dione]
- ED50 [1]: 0.7 µg/mL (≈ 2.04 µM)
- EC50 ([1]; Homo sapiens): 8.45 µM
- EC50 ([2]; Homo sapiens): 8.16 µM
- anti-tumor activity compared with the leading compound ([5]; versus desmosdumotin C): more significant anti-tumor activity than the leading compound
- EC50 ([3]; Homo sapiens): 9.62 µM
- EC50 ([4]; Homo sapiens, KBVIN): 6.99 µM

Structure (SMILES): COC1=C(C)C(=O)C(=C(O)C=Cc2ccc(OC)cc2)C(=O)C1(C)C [Compound 5, 2-[1′-Hydroxy-3-(4-methoxyphenyl)-allylidene]-5-methoxy-4,6,6-trimethyl-cyclohex-4-ene-1,3-dione]
- EC50 ([1]; Homo sapiens): 7.28 µM
- EC50 ([2]; Homo sapiens): 6.99 µM
- EC50 ([3]; Homo sapiens): 9.62 µM
- EC50 ([4]; Homo sapiens, KBVIN): 8.16 µM

Structure (SMILES): COC1=C(C)C(=O)C(=C(O)C=Cc2ccc(O)cc2)C(=O)C1(C)C [Compound 6, 2-[1′-Hydroxy-3-(4-hydroxyphenyl)-allylidene]-5-methoxy-4,6,6-trimethyl-cyclohex-4-ene-1,3-dione]
- EC50 ([1]; Homo sapiens): 8.86 µM
- EC50 ([2]; Homo sapiens): 9.48 µM
- EC50 ([3]; Homo sapiens): 11.6 µM
- EC50 ([4]; Homo sapiens, KBVIN): 11.6 µM

Structure (SMILES): COC1=C(C)C(=O)C(=C(O)C=Cc2ccco2)C(=O)C1(C)C [Compound 7, 2-(3′-Furan-2″-yl-1′-hydroxy-allylidene)-5-methoxy-4,6,6-trimethyl-cyclohex-4-ene-1,3-dione]
- EC50 [1]: 26.1 µM
- EC50 [2]: 33 µM
- EC50 [3]: 32.7 µM
- EC50 [4]: 29 µM

Structure (SMILES): COC1=C(C)C(=O)C(=C(O)C=Cc2cccs2)C(=O)C1(C)C [Compound 8, 2-(1′-Hydroxy-3′-thiophen-2″-yl-allylidene)-5-methoxy-4,6,6-trimethyl-cyclohex-4-ene-1,3-dione]
- EC50 [1]: 12.5 µM
- EC50 [2]: 14.1 µM
- EC50 [3]: 17.2 µM
- EC50 [4]: 10.7 µM

Structure (SMILES): COC1=C(C)C(=O)C(=C(O)C=Cc2nccs2)C(=O)C1(C)C [Compound 9]
- EC50 [1]: 10.9 µM
- EC50 [2]: 10.9 µM
- EC50 [3]: 13.4 µM
- EC50 [4]: 9.37 µM

Structure (SMILES): CC1=C(O)C2=C(OC(c3ccccc3)CC2=O)C(C)(C)C1=O (stereo not drawn) [Compound 11, 7-hydroxyl-6,8,8-trimethyl-2-phenyl-2,3-dihydrogen-8H-chromene-4,5-dione]
- ED50 [6]: >5 µg/mL
- ED50 [1]: 8.0 µg/mL (≈ 26.8 µM)
- ED50 [2]: 13.5 µg/mL (≈ 45.3 µM)
- ED50 [3]: 10.5 µg/mL (≈ 35.2 µM)
- ED50 [4]: 7.5 µg/mL (≈ 25.1 µM)

Structure (SMILES): CC1=C(O)C(C)(C)C(=O)/C(=C(O)\C=C\c2ccccc2)C1=O [Compound 12, 2-[(1′-hydroxy-2′-ene-3′-phenyl)propenylene]-5-hydroxy-4,6,6-trimethyl-1,3-cyclohexene(4,5)-dione]
- ED50 [6]: > 5 µg/mL
- ED50 [1]: 8.0 µg/mL (≈ 26.8 µM)
- ED50 [2]: 9.0 µg/mL (≈ 30.2 µM)
- ED50 [3]: 10.5 µg/mL (≈ 35.2 µM)
- ED50 [4]: 6.5 µg/mL (≈ 21.8 µM)

Structure (SMILES): COC1=C(C)C(=O)C(=C(O)C=Cc2ccccc2)C(=O)C1(C)C [Compound 13, 2-[(1′-hydroxy-2′-ene-3′-phenyl)propenylene)-5-methoxy-4,6,6-trimethyl-1,3-cyclohexene (4,5)-diketone]
- ED50 [6]: > 5 µg/mL
- ED50 [1]: 3.63 µg/mL (≈ 11.6 µM)
- ED50 [2]: > 5 µg/mL
- ED50 [3]: 4.1 µg/mL (≈ 13.1 µM)
- ED50 [4]: 2.9 µg/mL (≈ 9.28 µM)

Structure (SMILES): COC1=CC(=O)c2c(oc(-c3ccccc3)cc2=O)C1(C)C [Compound 14, 7-methoxy-8,8-dimethyl-2-phenyl-8H-chromene-4,5-dione]
- ED50 [1]: 0.7 µg/mL (≈ 2.36 µM)
- ED50 [2]: 2.0 µg/mL (≈ 6.75 µM)
- ED50 [3]: 1.8 µg/mL (≈ 6.07 µM)

Structure (SMILES): CC1=C(O)C(C)(C)c2oc(-c3ccccc3)cc(=O)c2C1=O [Desmosdumotin B, 7-hydroxyl-6,8,8-trimethyl-2-phenyl-8H-chromene-4,5-dione]
- ED50 [6]: >5 µg/mL
- ED50 [1]: 36.0 µg/mL (≈ 121 µM)
- ED50 [2]: 28.0 µg/mL (≈ 94.5 µM)
- ED50 [3]: >40 µg/mL
- ED50 [4]: 2.0 µg/mL (≈ 6.75 µM)

Structure (SMILES): COC1=C(C)C(=O)/C(=C(O)/C=C/c2ccccc2)C(=O)C1(C)C [Desmosdumotin C, 2-[(1′-hydroxy-2′-ene-3′-phenyl)propenylene]-5-methoxy-4,6,6-trimethyl-1,3-cyclohexene (4,5)-dione]
- ED50 [7]: < 6.5 µg/mL
- EC50 ([6]; Homo sapiens, MCF7, read-out: ED50 (the source's name)): 12.8 µM
- EC50 ([1]; Homo sapiens): 12.8 µM
- LD50 ([8]; Kunming mice, single vein injection, half male/half female): 46.0 mg/kg
- Death Rate ([8]; both, 32.8 mg/kg): 0%
- Death Rate ([8]; both, 40.96 mg/kg): 40%
- Death Rate ([8]; both, 51.2 mg/kg): 70%
- Death Rate ([8]; both, 64 mg/kg): 90%
- Death Rate ([8]; both, 80 mg/kg): 100%
- Death Rate ([8]; female, 32.8 mg/kg): 0%
- Death Rate ([8]; female, 40.96 mg/kg): 40%
- Death Rate ([8]; female, 51.2 mg/kg): 80%
- Death Rate ([8]; female, 64 mg/kg): 80%
- Death Rate ([8]; female, 80 mg/kg): 100%
- Death Rate ([8]; male, 32.8 mg/kg): 0%
- Death Rate ([8]; male, 40.96 mg/kg): 40%
- Death Rate ([8]; male, 51.2 mg/kg): 60%
- Death Rate ([8]; male, 64 mg/kg): 100%
- Death Rate ([8]; male, 80 mg/kg): 100%
- LD50 ([9]; read-out: LD50): > 46 mg/kg
- LD50 ([9]; read-out: LD50 (95% CL)): 39.8 to 53.1 mg/kg
- Tumor Weight X ± SD ([10]; S180, 2.5 mg/kg iv × 10qd): 1.99 ± 0.18
- Tumor Weight X ± SD ([10]; S180, 5 mg/kg iv × 10qd): 1.62 ± 0.22
- Tumor Weight X ± SD ([10]; S180, 10 mg/kg iv × 10qd): 1.51 ± 0.21
- Inhibition Rate ([10]; 2.5 mg/kg iv × 10qd): 30.18%
- Inhibition Rate ([10]; 5 mg/kg iv × 10qd): 43.16%
- Inhibition Rate ([10]; 10 mg/kg iv × 10qd): 47.02%
- ED50 [11]: < 4.0 µg/mL
- EC50 ([3]; Homo sapiens): 20.8 µM
- EC50 ([4]; Homo sapiens, KBVIN): 17.9 µM
- ED50 [12]: < 5.6 µg/mL
- ED50 [13]: < 3.8 µg/mL

— patent US20090233998A1, “Desmosdumotins, the Method for Preparing the Same and Use as Anti-Tumor or Anti-AIDS Agents” (priority 2004, published 2009)
